According to US20050260253A1, “Transmucosal gel formulations” (Recordati Ireland Limited, priority 2004, published 2005):
Read-outs that look alike come from different tables or passages of the source.

Columns and labels:
[1] = test system: genital blood flow in female anesthetized rabbits; test: Genital tissue oxyhemoglobin (genital engorgement) by laser oximetry, basal and after pelvic nerve stimulation, in vivo model of female sexual arousal; set-up: species or system rabbit (New Zealand White); conditions: for nerve-induced increase in genital tissue OxyHb: topical vaginal formulation; for mean AUC of genital tissue OxyHb compared to vehicle-treated control group: 15-35 min; for response to pelvic nerve stimulation (genital tissue oxyhemoglobin) vs control stimulations: vaginal submucosal injection 100 μg
Method: The effect of Rec 15/2615 formulation on genital blood flow, a physiologic parameters of female sexual arousal, was measured in both the basal, non-aroused state and following stimulation of the pelvic nerve, which mimics the sexually aroused state, in an established in vivo animal model of female sexual arousal (see, e.g., Munarriz, R., et al., 2003, A review of the physiology and pharmacology of peripheral (vaginal and clitoral) female genital arousal in the animal model, J. Urol. 170(2 Pt 2):S40-44; Min, K., et al., 2000, Sildenafil augments pelvic nerve-mediated female genital sexual arousal in the anesthetized rabbit. Intl. J. Impot. Res. 12(Suppl)3:S32-39; Tarcan, T., et al., 2000, Systemic administration of apomorphine improves the hemodynamic mechanism of clitoral and vaginal engorgement in the rabbit. Int J Impot Res. 12:235-240; Park, K., et al., 1997, Vasculogenic female sexual dysfunction: the hemodynamic basis for vaginal engorgement insufficiency and clitoral erectile insufficiency. Intl. J. Impot. Res. 9:27-37). Each of the foregoing references is incorporated herein by reference in its entirety.
(§1) Female New Zealand White rabbits (4.5 to 5 kg) were anesthetized by intramuscular injection of ketamine (35 mg/kg) and xylazine (5 mg/kg) and secured in the supine position. Anesthesia was maintained as needed with additional intramuscular xylazine (5 mg/ml). A midline neck incision (3 cm) was fashioned to access the carotid artery. A 20-gauge angiocatheter was inserted into the carotid artery for systemic blood pressure measurements. […] Body temperature was maintained with an electric heat pad. Following subcutaneous lidocaine injection, the perivesical space was exposed through a mid-line abdominal incision. The pelvic nerve was identified and carefully dissected under the perivesical fat on the postero-lateral aspect of the upper vagina. Bladder contents were aspirated through the bladder wall with an 18 gauge needle and 50 ml syringe. Under direct vision, a bipolar platinum wire electrode was hooked onto the pelvic nerve without cutting the nerve. Unilateral pelvic nerve stimulation was accomplished with a Grass SD9 stimulator set at normal polarity and repeat mode to generate a 30 second train of square waves with 10 V pulse amplitude, 0.8 msec pulse duration and 2-6 Hz frequency. A laser Doppler flowmetry surface probe (model BLF21D, Transonic System Inc, Ithaca, N.Y., USA) was placed into the rabbit vagina and used to confirm unilateral pelvic nerve stimulation. The interval between stimulations was 10-15 min to prevent nerve exhaustion.
Tissue hemoglobin concentration was determined by a near infrared optical spectroscopy technique using a dual channel laser oximeter (model 96208; ISS, Inc., Champaign, Ill.). This technique utilizes a continuous wave optical spectrometer with a fiber optic array probe consisting of one detector and 8 light sources. The sources emit light in the near infrared spectrum (700-900 nm) which can penetrate a targeted volume of tissue (˜530 mm^3) to an average depth of 7.2 mm beneath the optical fibers. By detecting scattered light, absorption by oxyhemoglobin (OHb) and deoxyhemoglobin can be quantified and total hemoglobin can be calculated. Laser oximetry can thus be utilized to assess local tissue hemodynamics in a non-invasive and continuous fashion. The skin around the labia was carefully shaved to ensure good contact with the optical fibers. The probe (2 cm in length) was positioned longitudinally on the skin overlying the clitoris, labia and vagina, such that the detector fiber was positioned just below the pubic arch. The probe assembly was secured in place by a metal stand. The area over the probe was covered with a black cloth to prevent any interference from natural or artificial ambient light sources.
A flexible 18 gauge catheter was attached to a syringe loaded with hydrogel formulation. The catheter was filled until the formulation reached 3-5 mm from the open end. […]

systemic blood pressure = test: Systemic blood pressure via carotid artery catheter in anesthetized rabbits; format: in vivo, rabbit (New Zealand White)
Method: as §1, with “The interval between stimulations was 10-15 min to prevent nerve exhaustion.” left out

[2] = Plasma concentration of Rec 15/2615 by LC/MS-MS after vaginal application or submucosal injection; format: in vivo, rabbit; conditions: for concentration at 15 min: female, rabbit, plasma, read-out: Mean plasma levels of Rec 15/2615
Method: A flexible 18 gauge catheter was attached to a syringe loaded with hydrogel formulation. The catheter was filled until the formulation reached 3-5 mm from the open end. The catheter was placed 2.5 cm into the vagina and secured to the labia with suture to prevent migration. The syringe was placed on the heating pad to keep the formulation warm. Following control nerve stimulations, 1 ml of formulation was infused into the vagina. Pelvic nerve stimulation was repeated 15 min and 30 min afterwards. Nerve stimulation at the 15 min time point coincided with the time of maximal serum concentration.
Rec 15/2615 hydrochloride (1 mg/ml) was dissolved in 10% (v/v) N,N-dimethylformamide. Prior to the application of the laser oximeter probe, Rec 15/2615 hydrochloride solution was loaded into two 23 gauge infusion sets connected to 1 ml syringes (50 μl per infusion set). Needles were inserted into the distal vaginal wall, just below the mucosal surface, at the 3 and 9 o'clock positions. Following control nerve stimulations, drug was infused into the vagina. Pelvic nerve stimulation was repeated 15 min and 30 min after drug administration.
Blood samples (˜2 ml) were obtained from the carotid artery prior to formulation administration and then […] after formulation administration. Samples were collected in heparinized syringes and transferred into pre-cooled polypropylene tubes on ice. Plasma was obtained by centrifugation at 1200×g for 2 min at 4° C. and stored at −20° C.
0.1 mL of rabbit plasma was transferred to an Eppendorf tube and 10 μL of internal standard methanolic solution (0.2 μg/mL of 4-amino-6,7-dimethoxy-2-[4-(2-isopropyl-5-methylphenoxy acetyl)-1-piperazinyl]quinazoline (Rec 15/2693) in methanol) were added. 1 mL of acetonitrile was added to each sample and samples were shaken on a multimixer shaker for 1 min. Protein was allowed to precipitate and samples were then centrifuged at 4° C. for 10 min at 2700 g. The organic layer was transferred to a new glass tube and evaporated at 45° C. under a stream of nitrogen. The residue was dissolved in 250 μL of buffer solution containing methanol/10 mM ammonium formate, pH 3.5 (40:60; v/v). Samples were mixed 1 min using a vortex mixer and clarified by centrifugation (5 min×2700 g). The clarified solution was transferred into an autosampler vial. Aliquots of 20 μL were analyzed by LC/MS-MS.

Row | concentration at 15 min ([2]; other: submucosal injection into the distal vaginal wall, 15 min after direct submucosal injection of 0.1 mg) [ng/mL] | concentration at 15 min ([2]; other: vaginal application, 15 min after vaginal application of 1 ml of formulation 0.075%) [ng/mL] | concentration at 15 min ([2]; other: vaginal application, 15 min after vaginal application of 1 ml of formulation 0.15%) [ng/mL] | concentration at 15 min ([2]; other: vaginal application, 15 min after vaginal application of 1 ml of formulation 0.3%) [ng/mL] | plasma levels with increasing concentration of active compound in the formulation ([2]; vaginal application, 0.075-0.3%) | SMILES | effect on genital tissue oxyhemoglobin administered as a gel compared with direct submucosal injection ([1]; formulations 0.075% and 0.15% vs submucosal injection, considering plasma levels at 15 min) | nerve-induced increase in genital tissue OxyHb ([1]; pelvic nerve stimulation at 15 min) | nerve-induced increase in genital tissue OxyHb ([1]; pelvic nerve stimulation at 30 min) | AUC of genital tissue OxyHb relative to vehicle ([1]; topical vaginal, 0-35 min, dose-dependent trend) | mean AUC of genital tissue OxyHb compared to vehicle-treated control group ([1]; topical vaginal, 1 ml formulation 0.15%) | mean AUC of genital tissue OxyHb compared to vehicle-treated control group ([1]; topical vaginal, 1 ml formulation 0.3%) | mean area-under-the-curve (AUC) of genital tissue OxyHb compared to vehicle ([1]; topical vaginal, 1 ml formulation, 0-15 min, all concentrations except 0.15%) | duration of sustained genital engorgement following formulation administration ([1]; topical vaginal, duration of the experimental protocol) | response to pelvic nerve stimulation (genital tissue oxyhemoglobin) vs control stimulations ([1]; 15 min after injection) | response to pelvic nerve stimulation (genital tissue oxyhemoglobin) vs control stimulations ([1]; 30 min after injection) | effect on blood pressure (systemic blood pressure; topical vaginal administration, 0.075-0.3% formulations) | effect on systemic blood pressure (systemic blood pressure; vaginal submucosal injection (data not shown))
1 |  |  |  |  |  | COc1cc2nc(N3CCN(C(=O)COc4c(OC)cccc4C(C)C)CC3)nc(N)c2cc1OC.Cl.Cl [Rec 15/2615 hydrochloride] | higher than that obtained by direct injection |  |  |  |  |  |  |  |  |  |  | 
2 | 26.3 | 10.6 | 45.2 | 72.5 | dose-dependent increase | COc1cc2nc(N3CCN(C(=O)COc4c(OC)cccc4C(C)C)CC3)nc(N)c2cc1OC [Rec 15/2615, 4-amino-6,7-dimethoxy-2-{4-[(2-isopropyl-6-methoxyphenoxy)acetyl]-1-piperazinyl}quinazoline] |  | significant increase | remained high | higher AUC values relative to vehicle | statistically significant difference | statistically significant difference | similar | up to 45 minutes | significantly enhanced response | did not reach statistical significance | no significant effect | did not affect systemic blood pressure
